Measured values taken from ChEMBL document CHEMBL1156829 (Proc Natl Acad Sci U S A, 2008).

Key:
[1] = NOVARTIS: Cytotoxicity against human hepatocellular carcinoma cell line (Huh7); assay type: toxicity, cell-based, Huh-7; conditions: Huh7 cells (hepatocellular carcinoma cell line)
Plasmodium falciparum [2] = assay: NOVARTIS: Inhibition of Plasmodium falciparum W2 (drug-resistant) proliferation in erythrocyte-based infection assay; assay type: functional, organism-based; conditions: Plasmodium falciparum, W2; read-out: EC50
Plasmodium falciparum [3] = assay: NOVARTIS: Inhibition of Plasmodium falciparum 3D7 (drug-susceptible) proliferation in erythrocyte-based infection assay; assay type: functional, organism-based; conditions: Plasmodium falciparum, 3D7

Row | SMILES | CC50 [1] [µM] | EC50 (Plasmodium falciparum [2]) [nM] | EC50 (Plasmodium falciparum [3]) [nM]
1 | CCn1c(SCC(=O)N(c2ccccc2)c2ccccc2)nc2sc3c(c2c1=O)CCN(C)C3 | > 100 | 7340 | > 5080
2 | O=C1CSc2nc3ccccc3n21 | > 100 | 1060 | 7920
3 | CC1CCCN(C(=O)C2CCN(Cc3ccccn3)CC2)C1 (stereo not given) | > 100 | 3580 | > 9140
4 | CN(C)c1ccc(/C=C/c2nc(=O)c3ccccc3o2)cc1 | > 10 | 93.6 | 130
5 | CCOc1ccc(NC(=O)NC(Cc2c[nH]c3ccccc23)C(=O)N2CCN(C(=O)NC(C)C)C(C)C2)cc1 (stereo not given) | > 10 | 223 | 259
6 | O=C(N/C(=C/C=C\c1ccccc1)C(=O)N1CCOCC1)c1ccc(Br)cc1 | > 10 | 401 | > 1300
7 | CC(C)CNc1nc(NCCCn2ccnc2)ncc1C(=O)NCc1ccccc1 | > 10 | 443 | 257
8 | Cc1nc2ccc(Br)cc2c(O)c1CC(C)C | > 100 | 2530 | 2730
9 | O=C(Cc1ccccc1)N1CCOc2c(cc(-c3csc4ccccc34)cc2OCCc2ccccn2)C1 | > 100 | 165 | 257
10 | COC(=O)CC(NC(=O)c1ccc(C)cc1)c1ccc2c(c1)OCO2 (stereo not given) | 15 | 206 | > 1680
11 | COc1nc(C)nc(NC(=O)NC(=O)c2c(OC)ccc([N+](=O)[O-])c2OC)n1 | > 10 | > 164 | > 266
12 | COc1cccc(-c2cncc(-c3cncc(OC)c3)n2)c1 | > 100 | 803 | 701
13 | CC(C)(c1ccc(Oc2ccc(NC(=O)c3ccccc3)cc2)cc1)c1cccc(Oc2ccc(NC(=O)c3ccccc3)cc2)c1 | > 10 | 1770 | 1560
14 | O=C(NCc1ccco1)C1CCN(S(=O)(=O)c2ccc(Br)cc2)CC1 | > 100 | 629 | 362
15 | CCCOC(=O)C1=C(C)NC2=C(C(=O)CC(c3ccc(OC)c(OC)c3)C2)C1c1ccccc1C (stereo not given) | > 100 | 9.78 | 12.7
16 | CC(C)Cc1ccc(/C=C/C(=O)NC2CC2)cc1 | > 10 | > 1200 | 913
17 | COc1cc(OC)c(OC)cc1CN1CCN(C(C)C)CC1 | > 10 | > 1480 | > 1010
18 | CCC(c1nc2ccccc2c(=O)n1-c1ccc(F)cc1)N(CCc1ccccc1)C(=O)CCc1ccccc1 (stereo not given) | > 10 | 1540 | 1520

Row | SMILES | CC50 [1] [µM] | EC50 (Plasmodium falciparum [2]) [nM] | EC50 (Plasmodium falciparum [3]) [nM]
19 | Cc1c(C(=O)N2CCN(c3cccc(Cl)c3)CC2)sc2ncnc(N(C)c3ccccc3)c12 | > 10 | > 906 | > 723
20 | Cc1ccc(Cn2c(N3CCC(C(=O)NCc4ccc(F)cc4)CC3)nc3ccccc32)cc1 | > 100 | 3180 | > 7510
21 | CCOc1ccccc1-n1c(SCC(=O)c2ccc(Cl)cc2)nc2[nH]ncc2c1=O | 73 | 4020 | > 12500
22 | Cc1ccc(-n2c(-c3ccccc3)cc(C=NNC(=O)c3cccc(O)c3)c2-c2ccccc2)cc1 | > 100 | 139 | 150
23 | COc1ccc(NC(=O)c2cnn(-c3ccccc3)c2NC(=O)c2ccco2)cc1 | > 100 | 3230 | 8000
24 | CCN1C(=Cc2ccc3c4ccoc4ccc3[n+]2CC)C=Cc2c1ccc1occc21 | > 10 | 764 | 534
25 | CCN1/C(=C\C=C2/SC(=S)N(c3ccccc3)C2=O)C(C)(C)c2cc(-c3ccccc3)ccc21 | > 8.66 | 318 | 128
26 | O=C(CCl)Nc1ccc(N2CCCCC2)cc1 | 41.2 | 417 | 797
27 | CCCCCCCC[n+]1c(C)n(C)c2cc(Cl)c(Cl)cc21 | 40.5 | 356 | 527
28 | COc1ccc2nc(C)cc(N(c3ccc(Br)cc3)S(=O)(=O)c3ccc([N+](=O)[O-])cc3)c2c1 | 6.83 | 1050 | 647
29 | CC(C)CC(=O)OC1C(N2CCCCC2)c2c(ccc(C=CC(=O)N3CCCCC3)c2O)OC1(C)C (stereo not given) | > 100 | > 12300 | 2600
30 | NC(=O)c1ccc2[nH]c3c(c2c1)CCCC3 | > 100 | > 7160 | > 12500
31 | O=c1c2c([nH]c3ccccc13)CCCCCC2 | > 100 | 2670 | 2940
32 | CCC(c1nc2ccccc2c(=O)n1-c1ccccc1OC)N(CCc1ccccc1)C(=O)c1ccc(F)cc1 (stereo not given) | > 7.25 | 180 | 1020
33 | CCCCN(CCCC)CC(O)c1cc(-c2ccc(Cl)cc2)nc2cc(Cl)ccc12 (stereo not given) | > 12.4 | 32.6 | 189
34 | COc1ccc(C=NNc2nc3cc(Cl)ccc3[nH]2)cc1OC | > 89.8 | 111 | 239
35 | Cc1ccc(C=Cc2ccc3ccccc3[n+]2C)cc1 | 16.3 | 1480 | 59.4
